Assay results reported in patent US10258602B2 (Ocera Therapeutics, Inc., priority 2007, dated 2019).

Assays:
Format in all cases: in vitro ADME
[1] = target: T1, CYP2D6 (Homo sapiens, UniProt P10635); experiment: Cytochrome P450 inhibition, CYP2D6; conditions: read-out: IC50 2D6
T1 construct: purchased BD Gentest, Becton-Dickinson (Supersomes); host or cells: insect cells
Description: (§1) K. Assay for Cytochrome P450 Inhibition
(§2) Cytochrome P450 enzymes are implicated in the phase I metabolism of drugs. The majority of drug-drug interactions are metabolism-based and, moreover, these interactions typically involve inhibition of cytochrome P450s. Six CYP450 enzymes (CYP1A2, CYP2C8, CYP2C9, CYP2C19, CYP2D6 and CYP3A4) appear to be commonly responsible for the metabolism of most drugs and the associated drug-drug interactions. Assays to determine the binding of compounds of the invention to the various metabolically important isoforms of cytochrome P450 metabolizing enzymes are commercially available, for example NoAb BioDiscoveries (Mississaugua, ON, Canada) and Absorption Systems (Exton, Pa., USA). As well, a number of appropriate methods have been described or reviewed in the literature. (White, R. E. Ann. Rev. Pharmacol. Toxicol. 2000, 40, 133-157; Li, A. P. Drug. Disc. Today 2001, 6, 357-366; Turpeinen, M.; Korhonen, L. E. Tolonen, A.; et al. Eur. J. Pharm. Sci, 2006, 29, 130-138.)
(§3) The key aspects of the experimental method were as follows: • 1. […] Assays monitored, via fluorescence detection, the formation of a fluorescent metabolite following incubation of the microsomes with a specific CYP substrate. • 3. Compounds of the present invention were tested in duplicate samples at eight test concentrations using 3-fold serial dilutions (concentration range of 0.0457 to 100 μM). • 4. For each CYP-450 enzyme, a specific inhibitor was tested in duplicate at eight concentrations as a positive control. • 5. The concentration of the inhibitor or test compound that inhibited metabolite formation by 50% (IC50) was calculated by non-linear regression analysis of the % inhibition vs. log concentration (M) curve.

[2] = target: T2, CYP2B6 (Homo sapiens, UniProt P20813); experiment: Cytochrome P450 inhibition, CYP2B6; conditions: read-out: IC50 2B6
T2 construct: purchased BD Gentest, Becton-Dickinson (Supersomes); host or cells: insect cells
T2 sequence (P20813 1-491): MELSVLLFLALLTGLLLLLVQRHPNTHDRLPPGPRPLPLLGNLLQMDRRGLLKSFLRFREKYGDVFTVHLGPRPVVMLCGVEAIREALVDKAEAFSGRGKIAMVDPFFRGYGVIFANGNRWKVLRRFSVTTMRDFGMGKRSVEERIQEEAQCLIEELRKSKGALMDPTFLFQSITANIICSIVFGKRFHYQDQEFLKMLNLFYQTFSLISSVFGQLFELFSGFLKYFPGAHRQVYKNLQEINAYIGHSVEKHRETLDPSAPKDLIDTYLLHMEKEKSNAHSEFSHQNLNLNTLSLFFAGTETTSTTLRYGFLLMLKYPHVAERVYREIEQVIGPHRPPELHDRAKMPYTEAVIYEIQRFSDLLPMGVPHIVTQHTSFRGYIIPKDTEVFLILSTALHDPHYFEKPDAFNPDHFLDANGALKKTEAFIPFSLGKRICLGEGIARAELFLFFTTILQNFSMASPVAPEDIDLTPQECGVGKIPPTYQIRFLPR
Description: as §1, §2, §3

[3] = target: T3, CYP2C9 (Homo sapiens, UniProt P11712); experiment: Cytochrome P450 inhibition, CYP2C9; conditions: read-out: IC50 2C9
T3 construct: purchased BD Gentest, Becton-Dickinson (Supersomes); host or cells: insect cells
Description: as §1, §2, §3

[4] = target: T4, CYP1A2 (Homo sapiens, UniProt P05177); experiment: Cytochrome P450 inhibition, CYP1A2; conditions: read-out: IC50 1A2
T4 construct: purchased BD Gentest, Becton-Dickinson (Supersomes); host or cells: insect cells
T4 sequence (P05177 1-516): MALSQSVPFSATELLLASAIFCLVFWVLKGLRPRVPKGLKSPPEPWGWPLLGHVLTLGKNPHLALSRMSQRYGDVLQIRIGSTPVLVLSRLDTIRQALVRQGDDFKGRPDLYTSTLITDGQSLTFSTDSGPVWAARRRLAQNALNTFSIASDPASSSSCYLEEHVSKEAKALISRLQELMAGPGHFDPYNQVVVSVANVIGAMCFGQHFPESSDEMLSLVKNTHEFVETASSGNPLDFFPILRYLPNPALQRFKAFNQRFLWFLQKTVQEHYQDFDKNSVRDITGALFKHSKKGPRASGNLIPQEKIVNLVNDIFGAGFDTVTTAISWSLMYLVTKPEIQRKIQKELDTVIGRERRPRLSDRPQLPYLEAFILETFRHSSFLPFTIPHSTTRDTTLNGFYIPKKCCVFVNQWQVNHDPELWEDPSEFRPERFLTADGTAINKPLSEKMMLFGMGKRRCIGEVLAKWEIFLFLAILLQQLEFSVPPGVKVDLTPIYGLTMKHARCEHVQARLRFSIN
Description: as §1, §2, §3

[5] = tested on: rat plasma; experiment: Plasma protein binding, rat plasma
[6] = tested on: human plasma; experiment: Plasma protein binding, human plasma (equilibrium dialysis)
Method in brief: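 Human plasma incubated with test article at several concentrations for 60 min at 37° C. Bound and unbound fractions separated by equilibrium dialysis; unbound concentration quantified by LC-MS or LC-MS-MS.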

T1 sequence (P10635 whole entry): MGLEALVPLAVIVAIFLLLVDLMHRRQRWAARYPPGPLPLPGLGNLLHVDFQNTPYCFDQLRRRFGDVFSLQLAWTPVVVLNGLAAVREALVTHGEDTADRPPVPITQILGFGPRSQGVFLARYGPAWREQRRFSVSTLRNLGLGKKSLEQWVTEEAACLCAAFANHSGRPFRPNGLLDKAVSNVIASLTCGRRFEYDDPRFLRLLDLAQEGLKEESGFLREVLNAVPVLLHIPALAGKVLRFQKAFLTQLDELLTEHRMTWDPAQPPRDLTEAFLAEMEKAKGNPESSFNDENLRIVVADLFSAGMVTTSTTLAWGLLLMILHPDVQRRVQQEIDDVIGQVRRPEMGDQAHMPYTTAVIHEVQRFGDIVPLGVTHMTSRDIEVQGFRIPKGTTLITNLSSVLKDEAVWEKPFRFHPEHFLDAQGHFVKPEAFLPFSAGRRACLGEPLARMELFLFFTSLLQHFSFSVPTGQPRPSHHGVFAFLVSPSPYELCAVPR
T3 sequence (P11712 whole entry): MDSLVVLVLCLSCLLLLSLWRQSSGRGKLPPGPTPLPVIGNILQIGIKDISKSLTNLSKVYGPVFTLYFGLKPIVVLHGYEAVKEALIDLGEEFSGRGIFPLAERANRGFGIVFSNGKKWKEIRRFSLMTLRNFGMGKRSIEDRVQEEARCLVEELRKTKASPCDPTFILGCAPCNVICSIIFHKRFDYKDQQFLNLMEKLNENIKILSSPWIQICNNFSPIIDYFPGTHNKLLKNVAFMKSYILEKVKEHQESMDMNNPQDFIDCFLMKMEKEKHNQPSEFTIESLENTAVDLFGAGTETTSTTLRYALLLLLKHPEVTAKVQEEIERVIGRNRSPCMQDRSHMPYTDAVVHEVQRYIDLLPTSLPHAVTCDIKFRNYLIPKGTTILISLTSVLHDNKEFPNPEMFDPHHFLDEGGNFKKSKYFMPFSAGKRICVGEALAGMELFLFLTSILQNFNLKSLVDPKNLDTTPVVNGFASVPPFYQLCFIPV

| IC50 [1] | IC50 [2] | IC50 [3] | IC50 [4] | Rat Plasma Protein Binding (%) ([5]; test concentration 5 μg/mL) | Human Plasma Protein Binding (%) ([6]; test concentration 5 μg/mL) | Compound | Rat Plasma Protein Binding (%) ([5]; test concentration 3 μg/mL) | Human Plasma Protein Binding (%) ([6]; test concentration 3 μg/mL) | Rat Plasma Protein Binding (%) ([5]; test concentration 1 μg/mL) | Human Plasma Protein Binding (%) ([6]; test concentration 1 μg/mL) |
| --- | --- | --- | --- | --- | --- | --- | --- | --- | --- | --- |
| > 100 µM | 102 µM | > 100 µM | 69 µM |  |  | CC(C)C[C@H]1NC(=O)[C@@H](C)N(C)C(=O)[C@H](C2CC2)NCCOc2cc(F)ccc2CCCNC1=O [Compound 810] |  | 78.9% |  |  |
| > 100 µM | > 100 µM | > 100 µM | > 100 µM |  |  | CC(C)CC1NC(=O)C(C)N(C)C(=O)C(C2CCCCC2)NCC(C)OC2CCCCC2CCCNC1=O (mixture of isomers) [Compound 828] |  | 76.8% |  |  |
| > 100 µM | > 100 µM | > 100 µM | > 100 µM |  |  | CC(C)C[C@H]1NC(=O)[C@@H](C)N(C)C(=O)[C@H](C2CC2)NCCOc2cc(F)ccc2CC[C@H](C)NC1=O [Compound 822] | 99.1% | 93.0% |  |  |
| > 100 µM | > 100 µM | > 100 µM | > 100 µM | 73% | 70% | CC(C)CC1NC(=O)C(C)N(C)C(=O)C(C2CC2)NCC(C)OC2CCCCC2CCCNC1=O (mixture of isomers) [Compound 825] |  |  | 96.6% | 83% |

More lines, now with the values behind:

| Compound | IC50 [1] | IC50 [2] | IC50 [3] | IC50 [4] | Rat Plasma Protein Binding (%) ([5]; test concentration 5 μg/mL) | Human Plasma Protein Binding (%) ([6]; test concentration 5 μg/mL) | Rat Plasma Protein Binding (%) ([5]; test concentration 3 μg/mL) | Human Plasma Protein Binding (%) ([6]; test concentration 3 μg/mL) | Rat Plasma Protein Binding (%) ([5]; test concentration 1 μg/mL) | Human Plasma Protein Binding (%) ([6]; test concentration 1 μg/mL) |
| --- | --- | --- | --- | --- | --- | --- | --- | --- | --- | --- |
| C[C@@H]1C(=O)N[C@H](Cc2ccc(O)cc2)C(=O)NCCCc2ccc(F)cc2OCCN[C@@H](C2CC2)C(=O)N1C [Compound 809] | > 100 µM | > 100 µM | > 100 µM | > 100 µM |  |  | 92.8% | 88.4% |  |  |
| CC(C)C[C@H]1NC(=O)[C@@H](C)N(C)C(=O)[C@H](C2CC2)NC[C@@H](C)Oc2ccccc2CC[C@H](C)NC1=O [Compound 807] | > 100 µM | > 100 µM | > 100 µM | > 100 µM |  |  |  |  |  |  |
| CC1NC(C2CC2)C(=O)N(C)C(C)C(=O)NC(Cc2ccc(O)cc2)C(=O)NCCCc2ccccc2OC1C (stereo not shown) [Compound 820] | > 100 µM | > 100 µM | > 100 µM | > 100 µM |  |  | 98.8% | 99.0% |  |  |
| C[C@@H]1C(=O)N[C@H](Cc2ccc(O)cc2)C(=O)NCCCc2cccc3c2O[C@H](CC3)CN[C@@H](C2CC2)C(=O)N1C [Compound 803] | > 100 µM | 53.6 µM | > 100 µM | > 100 µM |  |  |  |  | 99.1% | 97.8% |
| CC1CNC(C2CC2)C(=O)N(C)C(C)C(=O)NC(Cc2ccc(O)cc2)C(=O)NCCCC2CCCCC2O1 (mixture of isomers) [Compound 826] | > 100 µM | > 100 µM | > 100 µM | > 100 µM |  |  | 97.2% | 94.3% |  |  |
